Results: PubChem BioAssay AID248 (DTP/NCI, 2004)
Where “and” joins values, the source holds several entries; their conditions need not be identical. Identical values can stand only once. Toxic doses and inconclusive results are not listed. No stated cut-off is given here; in the data, active means T/C of 150% or more; inactive means T/C below 125%. Peptide text beside a SMILES is read from it. * marks the point of attachment. Cbz = O=C(OCc1ccccc1)*; Bn = c1ccc(C*)cc1

Tested on: L1210 leukemia ip in BDF1 mice, survival T/C
Test: NCI In Vivo Anticancer Drug Screen. Data for tumor model L1210 Leukemia (intraperitoneal) in B6D2F1 (BDF1) mice
Conditions: endpoint: mean survival time, higher = longer survival
Procedure, shortened: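 Tumor cells were implanted, animals were treated, and survival was followed. The result divides the treated measurement by the vehicle-control measurement.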

[1] = dose: 100.0 mg/kg/injection, schedule: Q01DX009 (ip), vehicle: saline with Tween-80
[2] = dose: 100.0 mg/kg/injection, schedule: Q04DX003 (ip), vehicle: saline
[3] = dose: 100.0 mg/kg/injection, schedule: Q01DX009 (ip), vehicle: Klucel (hydroxypropylcellulose) (HPC)
[4] = dose: 100.0 mg/kg/injection, schedule: Q04DX003 (ip), vehicle: Klucel (hydroxypropylcellulose) (HPC)
[5] = dose: 200.0 mg/kg/injection, schedule: Q01DX009 (ip), vehicle: Klucel (hydroxypropylcellulose) (HPC)
[6] = dose: 200.0 mg/kg/injection, schedule: Q04DX003 (ip), vehicle: Klucel (hydroxypropylcellulose) (HPC)
[7] = dose: 400.0 mg/kg/injection, schedule: Q01DX009 (ip), vehicle: Klucel (hydroxypropylcellulose) (HPC)
[8] = dose: 400.0 mg/kg/injection, schedule: Q04DX003 (ip), vehicle: Klucel (hydroxypropylcellulose) (HPC)
[9] = dose: 200.0 mg/kg/injection, schedule: Q01DX009 (ip), vehicle: saline with Tween-80
[10] = dose: 400.0 mg/kg/injection, schedule: Q01DX009 (ip), vehicle: saline with Tween-80
[11] = dose: 100.0 mg/kg/injection, schedule: Q01DX009 (ip), vehicle: saline
[12] = dose: 200.0 mg/kg/injection, schedule: Q01DX009 (ip), vehicle: saline

Measured: T/C

NC(=O)C1(Cl)CC2C=CC1C2 (stereo not drawn)
inactive: dose: 25.0 mg/kg/injection, schedule: Q01DX009 (ip), vehicle: saline with Tween-80 90 % of control | dose: 25.0 mg/kg/injection, schedule: Q04DX003 (ip), vehicle: saline 100 % of control | dose: 50.0 mg/kg/injection, schedule: Q01DX009 (ip), vehicle: saline with Tween-80 95 % of control | dose: 50.0 mg/kg/injection, schedule: Q04DX003 (ip), vehicle: saline 99 % of control | [1] 97 % of control | [2] 110 % of control

O=C(/C=C\c1ccc2c(c1)OCO2)/C=C/c1ccc2c(c1)OCO2
inactive: [3] 97 % of control | [4] 92 % of control | dose: 100.0 mg/kg/injection, schedule: Q04DX003 (ip), vehicle: saline with Tween-80 97 % of control | [5] 88 % of control | [6] 101 % of control | dose: 200.0 mg/kg/injection, schedule: Q04DX003 (ip), vehicle: saline with Tween-80 94 % of control | [7] 87 % of control | [8] 94 % of control | dose: 400.0 mg/kg/injection, schedule: Q04DX003 (ip), vehicle: saline with Tween-80 90 % of control

O=C(NC(CSCc1ccccc1)C(=O)NC(Cc1ccc(O)cc1)C(=O)O)OCc1ccccc1 (stereo not drawn) (Cbz-Cys(Bn)-Tyr-OH; configuration not given here)
inactive: dose: 100.0 mg/kg/injection, schedule: Q01DX009 (ip), vehicle: gum acacia 95 % of control | dose: 100.0 mg/kg/injection, schedule: Q04DX003 (ip), vehicle: gum acacia 103 % of control | dose: 200.0 mg/kg/injection, schedule: Q01DX009 (ip), vehicle: gum acacia 95 % of control | dose: 200.0 mg/kg/injection, schedule: Q04DX003 (ip), vehicle: gum acacia 103 % of control | dose: 400.0 mg/kg/injection, schedule: Q01DX009 (ip), vehicle: gum acacia 89 % of control | dose: 400.0 mg/kg/injection, schedule: Q04DX003 (ip), vehicle: gum acacia 92 % of control

CCOC(=O)c1cc(CC)sc1N
inactive: [1] 96 % of control | [4] 91 % of control | [9] 86 % of control | [6] 97 % of control | [10] 90 % of control | [8] 96 % of control

CCOC(=O)C1CC(Cl)c2c(ccc3cc(OC)ccc23)N1 (stereo not drawn)
inactive: dose: 25.0 mg/kg/injection, schedule: Q01DX001 (ip), vehicle: carboxymethylcellulose (CMC) 100 % of control | dose: 25.0 mg/kg/injection, schedule: Q01DX009 (ip), vehicle: carboxymethylcellulose (CMC) 98 % of control and 92 % of control | dose: 25.0 mg/kg/injection, schedule: Q04DX002 (ip), vehicle: carboxymethylcellulose (CMC) 93 % of control and 95 % of control | dose: 25.0 mg/kg/injection, schedule: Q04DX003 (ip), vehicle: carboxymethylcellulose (CMC) 97 % of control | dose: 50.0 mg/kg/injection, schedule: Q01DX001 (ip), vehicle: carboxymethylcellulose (CMC) 107 % of control | dose: 50.0 mg/kg/injection, schedule: Q01DX009 (ip), vehicle: carboxymethylcellulose (CMC) 100 % of control and 91 % of control | dose: 50.0 mg/kg/injection, schedule: Q04DX002 (ip), vehicle: carboxymethylcellulose (CMC) 101 % of control and 103 % of control | dose: 50.0 mg/kg/injection, schedule: Q04DX003 (ip), vehicle: carboxymethylcellulose (CMC) 95 % of control | dose: 100.0 mg/kg/injection, schedule: Q01DX009 (ip), vehicle: carboxymethylcellulose (CMC) 93 % of control | dose: 100.0 mg/kg/injection, schedule: Q04DX002 (ip), vehicle: carboxymethylcellulose (CMC) 95 % of control and 108 % of control | dose: 100.0 mg/kg/injection, schedule: Q04DX003 (ip), vehicle: carboxymethylcellulose (CMC) 95 % of control

NN(CC(=O)O)c1ccccc1
inactive: [1] 100 % of control | [9] 105 % of control | [10] 94 % of control

O=C(c1ccccc1)C1C(c2ccccc2)N1CCl (stereo not drawn)
inactive: [3] 98 % of control | [4] 92 % of control | [5] 94 % of control | [6] 105 % of control | [7] 100 % of control | [8] 107 % of control

O=C1C2C3C=CC(CC3)C2C(=O)C2C3C=CC(C3)C12 (stereo not drawn)
inactive: dose: 100.0 mg/kg/injection, schedule: Q04DX002 (ip), vehicle: saline with Tween-80 101 % of control | dose: 200.0 mg/kg/injection, schedule: Q04DX002 (ip), vehicle: saline with Tween-80 93 % of control

C=CC(C)C/C(CC)=N\NC(N)=O (stereo not drawn)
inactive: dose: 75.0 mg/kg/injection, schedule: Q01DX001 (ip), vehicle: other 98 % of control | dose: 150.0 mg/kg/injection, schedule: Q01DX001 (ip), vehicle: other 103 % of control

COc1ccc(CCN)cc1F
inactive: dose: 100.0 mg/kg/injection, schedule: Q04DX002 (ip), vehicle: Klucel (hydroxypropylcellulose) (HPC) 98 % of control | dose: 200.0 mg/kg/injection, schedule: Q04DX002 (ip), vehicle: Klucel (hydroxypropylcellulose) (HPC) 102 % of control

C[Si](C)(C)c1cc(F)c(F)c(F)c1F
inactive: [3] 100 % of control | [4] 97 % of control | [5] 102 % of control | [6] 102 % of control | [7] 98 % of control | [8] 103 % of control

O=C1OC2C3c4ccccc4C(c4c3ccc3ccccc43)C2O1 (stereo not drawn)
inactive: [4] 103 % of control | [6] 95 % of control | [8] 95 % of control

COc1ccccc1C1CC(C(C)(C)C)CCC1OS(=O)(=O)c1ccc(C)cc1 (stereo not drawn)
inactive: dose: 50.0 mg/kg/injection, schedule: Q01DX009 (ip), vehicle: saline 90 % of control | [11] 92 % of control | dose: 100.0 mg/kg/injection, schedule: Q04DX003 (ip), vehicle: acetone 102 % of control | [12] 95 % of control | dose: 200.0 mg/kg/injection, schedule: Q04DX003 (ip), vehicle: acetone 96 % of control | dose: 400.0 mg/kg/injection, schedule: Q04DX003 (ip), vehicle: acetone 94 % of control

FC(Cl)C(F)(F)Br (stereo not drawn)
inactive: dose: 75.0 mg/kg/injection, schedule: Q01DX005 (ip), vehicle: saline 95 % of control | dose: 150.0 mg/kg/injection, schedule: Q01DX005 (ip), vehicle: saline 101 % of control | dose: 300.0 mg/kg/injection, schedule: Q01DX005 (ip), vehicle: saline 98 % of control | dose: 600.0 mg/kg/injection, schedule: Q01DX001 (ip), vehicle: acetone 101 % of control

O=C(NC1CSSC1)C(Cc1ccccc1)N1C(=O)c2ccccc2C1=O (stereo not drawn)
inactive: dose: 6.25 mg/kg/injection, schedule: Q01DX009 (ip), vehicle: water 94 % of control | dose: 12.5 mg/kg/injection, schedule: Q01DX009 (ip), vehicle: water 96 % of control | dose: 25.0 mg/kg/injection, schedule: Q01DX009 (ip), vehicle: water 107 % of control | dose: 50.0 mg/kg/injection, schedule: Q01DX009 (ip), vehicle: water 96 % of control and 88 % of control | dose: 100.0 mg/kg/injection, schedule: Q01DX009 (ip), vehicle: water 87 % of control and 91 % of control | dose: 200.0 mg/kg/injection, schedule: Q01DX009 (ip), vehicle: water 98 % of control | dose: 400.0 mg/kg/injection, schedule: Q01DX009 (ip), vehicle: water 96 % of control

CCOC(=O)c1c(N)ssc1=S
inactive: [11] 100 % of control | [2] 102 % of control | [12] 105 % of control | dose: 200.0 mg/kg/injection, schedule: Q04DX003 (ip), vehicle: saline 105 % of control | dose: 400.0 mg/kg/injection, schedule: Q01DX009 (ip), vehicle: saline 105 % of control | dose: 400.0 mg/kg/injection, schedule: Q04DX003 (ip), vehicle: saline 107 % of control

CCCCOc1ccc(OC(=O)Nc2cccc(C(C)=O)c2)cc1
inactive: [3] 108 % of control | [5] 96 % of control | [7] 96 % of control
